# Laboratory results: BindingDB's records for doi:10.1016/j.bmcl.2009.12.085 (Bristol-Myers Squibb Pharmaceutical Research and Development, 2010)
# pIC50: −log10 of the molar value.
# Target: Potassium voltage-gated channel subfamily A member 5 (Homo sapiens, UniProt P22460)
# Assay: Inhibition of human Kv1.5 channel expressed in mouse L929 cells
# Potassium voltage-gated channel subfamily A member 5, sequence (P22460 whole entry): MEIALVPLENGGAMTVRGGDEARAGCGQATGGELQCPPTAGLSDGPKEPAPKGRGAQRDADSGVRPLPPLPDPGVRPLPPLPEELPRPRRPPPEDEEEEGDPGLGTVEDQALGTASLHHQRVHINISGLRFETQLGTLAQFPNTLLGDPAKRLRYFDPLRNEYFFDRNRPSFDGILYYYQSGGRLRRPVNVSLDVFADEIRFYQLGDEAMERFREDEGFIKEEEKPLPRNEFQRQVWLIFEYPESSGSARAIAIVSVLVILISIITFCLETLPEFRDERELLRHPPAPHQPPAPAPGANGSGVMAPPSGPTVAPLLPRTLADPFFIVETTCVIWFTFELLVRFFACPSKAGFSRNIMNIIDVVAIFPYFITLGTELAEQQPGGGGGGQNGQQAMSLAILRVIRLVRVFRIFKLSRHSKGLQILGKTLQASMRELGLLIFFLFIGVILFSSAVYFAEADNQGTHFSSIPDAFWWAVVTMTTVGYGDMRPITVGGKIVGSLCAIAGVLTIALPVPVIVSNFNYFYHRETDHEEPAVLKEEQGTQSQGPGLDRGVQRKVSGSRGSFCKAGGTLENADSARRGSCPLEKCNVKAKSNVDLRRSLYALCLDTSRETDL
row,Compound,pIC50
1,"CC1=Nc2ccnn2C(c2ccc(Cl)c(Cl)c2)C1C(=O)N1CCC[C@H]1c1n[nH]c(=O)n1C (stereo partly drawn) [3-((2S)-1-(7-(3,4-dichlorophenyl)-5-methyl-4,7-dihydropyrazolo[1,5-a]pyrimidine-6-carbonyl)pyrrolidin-2-yl)-4-methyl-1H-1,2,4-triazol-5(4H)-one]",< 6.00
2,"COC(=O)[C@@H]1CCCN1C(=O)C1C(C)=Nc2ccnn2C1c1ccc(Cl)c(Cl)c1 (stereo partly drawn) [(2S)-methyl 1-(7-(3,4-dichlorophenyl)-5-methyl-4,7-dihydropyrazolo[1,5-a]pyrimidine-6-carbonyl)pyrrolidine-2-carboxylate]",6.82
3,"CC1=Nc2ccnn2C(c2ccc(Cl)c(Cl)c2)C1C(=O)N1CCCC1c1ccc(F)cc1 (centres undefined) [(7-(3,4-dichlorophenyl)-5-methyl-4,7-dihydropyrazolo[1,5-a]pyrimidin-6-yl)(2-(4-fluorophenyl)pyrrolidin-1-yl)methanone]",7.15
4,"CC1=Nc2ccnn2C(c2ccc(Cl)c(Cl)c2)C1C(=O)N1CCCC1c1ccccn1 (centres undefined) [(7-(3,4-dichlorophenyl)-5-methyl-4,7-dihydropyrazolo[1,5-a]pyrimidin-6-yl)(2-(pyridin-2-yl)pyrrolidin-1-yl)methanone]",6.18

# Second part, the molecule after the results:
row,pIC50,Compound
1,< 6.00,"CC1=Nc2ccnn2C(c2ccc(Cl)c(Cl)c2)C1C(=O)N1CCCC1c1cccnc1 (centres undefined) [(7-(3,4-dichlorophenyl)-5-methyl-4,7-dihydropyrazolo[1,5-a]pyrimidin-6-yl)(2-(pyridin-3-yl)pyrrolidin-1-yl)methanone]"
2,6.82,"CC1=Nc2ccnn2C(c2ccc(Cl)c(Cl)c2)C1C(=O)N1CCCC1c1ccccc1 (centres undefined) [(7-(3,4-dichlorophenyl)-5-methyl-4,7-dihydropyrazolo[1,5-a]pyrimidin-6-yl)(2-phenylpyrrolidin-1-yl)methanone]"
3,< 6.00,"CC1=Nc2ccnn2C(c2ccc(Cl)c(Cl)c2)C1C(=O)N1CCC[C@H]1c1nnn[nH]1 (stereo partly drawn) [((S)-2-(1H-tetrazol-5-yl)pyrrolidin-1-yl)(7-(3,4-dichlorophenyl)-5-methyl-4,7-dihydropyrazolo[1,5-a]pyrimidin-6-yl)methanone]"
4,< 6.00,"CC1=Nc2ccnn2C(c2ccc(Cl)c(Cl)c2)C1C(=O)N1CCC[C@H]1c1nnc[nH]1 (stereo partly drawn) [((S)-2-(4H-1,2,4-triazol-3-yl)pyrrolidin-1-yl)(7-(3,4-dichlorophenyl)-5-methyl-4,7-dihydropyrazolo[1,5-a]pyrimidin-6-yl)methanone]"
5,< 6.00,"CC1=Nc2ccnn2C(c2ccc(Cl)c(Cl)c2)C1C(=O)N1CCC[C@H]1c1nnc(N)s1 (stereo partly drawn) [((S)-2-(5-amino-1,3,4-thiadiazol-2-yl)pyrrolidin-1-yl)(7-(3,4-dichlorophenyl)-5-methyl-4,7-dihydropyrazolo[1,5-a]pyrimidin-6-yl)methanone]"
